Test results from ChEMBL document CHEMBL1201862, “PubChem BioAssay data set” (2004).
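Values below derive from 48-hour exposures of cells grown in 96-well plates, with endpoints linearly interpolated between the two concentrations bracketing the appropriate inhibition level. GI50 marks 50% less growth.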 Active and inactive are the calls of the source. Rule as the data show it: active = GI50 up to about 1.1 µM and inactive = higher.

Assays:
Experiment in all cases: inhibition of tumour cell growth, NCI panel, 48 h
NCI-H23 = tested on: NCI-H23
HOP-92 = tested on: HOP-92
OVCAR-3 = tested on: OVCAR-3
HOP-62 = tested on: HOP-62
HCT-116 = tested on: HCT-116
SK-MEL-2 = tested on: SK-MEL-2
LXFL 529 = tested on: LXFL 529
SK-MEL-5 = tested on: SK-MEL-5
SK-MEL-28 = tested on: SK-MEL-28
CCRF-CEM = tested on: CCRF-CEM
COLO 205 = tested on: COLO 205
A549 = tested on: A549
RPMI-8226 = tested on: RPMI-8226
RXF 393 = tested on: RXF 393
HCC 2998 = tested on: HCC 2998
SF-295 = tested on: SF-295
U-251 = tested on: U-251

| SMILES | GI50 (NCI-H23) | GI50 (HOP-92) | GI50 (OVCAR-3) | GI50 (HOP-62) | GI50 (HCT-116) | GI50 (SK-MEL-2) | GI50 (LXFL 529) | GI50 (SK-MEL-5) | GI50 (SK-MEL-28) | GI50 (CCRF-CEM) | GI50 (COLO 205) | GI50 (A549) | GI50 (RPMI-8226) | GI50 (RXF 393) | GI50 (HCC 2998) | GI50 (SF-295) | GI50 (U-251) |
| --- | --- | --- | --- | --- | --- | --- | --- | --- | --- | --- | --- | --- | --- | --- | --- | --- | --- |
| COc1ccccc1NC(=O)CC(=O)n1nc(-c2ccccc2)c(/N=N/c2ccccc2[N+](=O)[O-])c1-c1ccccc1 | 98.4 µM (inactive) | 81.7 µM (inactive) | 69 µM (inactive) | > 100 µM (inactive) | 71.6 µM (inactive) | > 100 µM (inactive) | 83.2 µM (inactive) | 94.4 µM (inactive) | 30 µM (inactive) | > 100 µM (inactive) | 95.5 µM (inactive) | > 100 µM (inactive) | 74.5 µM (inactive) | 44.7 µM (inactive) | 70 µM (inactive) | > 100 µM (inactive) | 56.5 µM (inactive) |
| CCOc1ccc(/N=N/c2c(-c3ccccc3)nn(C(=O)CC(=O)Nc3cccc(C)c3)c2-c2ccccc2)cc1 | > 100 µM (inactive) | > 100 µM (inactive) | > 100 µM (inactive) | > 100 µM (inactive) | 58.5 µM (inactive) | > 100 µM (inactive) | > 100 µM (inactive) | 90.2 µM (inactive) | > 100 µM (inactive) | 76.9 µM (inactive) | > 100 µM (inactive) | > 100 µM (inactive) | 65.8 µM (inactive) | 57.9 µM (inactive) | 26.6 µM (inactive) | > 100 µM (inactive) | 56.2 µM (inactive) |
| COC(=O)CC(=O)NCC1=CCC(=O)CC1 | > 100 µM (inactive) | > 100 µM (inactive) | > 100 µM (inactive) | > 100 µM (inactive) | > 100 µM (inactive) | > 100 µM (inactive) | > 100 µM (inactive) | > 100 µM (inactive) | > 100 µM (inactive) | > 100 µM (inactive) | > 100 µM (inactive) | > 100 µM (inactive) | > 100 µM (inactive) | > 100 µM (inactive) | > 100 µM (inactive) | > 100 µM (inactive) | > 100 µM (inactive) |
| COc1ccc(CCCN2c3ccccc3Sc3ccccc32)cc1 | > 100 µM (inactive) | > 100 µM (inactive) | – | > 100 µM (inactive) | 36.3 µM (inactive) | > 100 µM (inactive) | 73.1 µM (inactive) | > 100 µM (inactive) | > 100 µM (inactive) | 51.2 µM (inactive) | 43.4 µM (inactive) | > 100 µM (inactive) | 32.3 µM (inactive) | > 100 µM (inactive) | > 100 µM (inactive) | > 100 µM (inactive) | > 100 µM (inactive) |
| O=C1C=CC(=O)N1Nc1ccc([N+](=O)[O-])cc1[N+](=O)[O-] | > 100 µM (inactive) | > 49.1 µM (inactive) | 98.4 µM (inactive) | > 100 µM (inactive) | > 100 µM (inactive) | > 100 µM (inactive) | > 44.5 µM (inactive) | > 100 µM (inactive) | > 43.4 µM (inactive) | 14 µM (inactive) | > 42.8 µM (inactive) | > 100 µM (inactive) | > 44.5 µM (inactive) | – | > 100 µM (inactive) | > 100 µM (inactive) | > 100 µM (inactive) |
| C1CCN(c2nsc(N3CCCCC3)n2)CC1 | > 100 µM (inactive) | 97.1 µM (inactive) | – | > 100 µM (inactive) | > 100 µM (inactive) | > 100 µM (inactive) | > 100 µM (inactive) | > 100 µM (inactive) | > 100 µM (inactive) | > 100 µM (inactive) | – | > 100 µM (inactive) | 87.3 µM (inactive) | > 100 µM (inactive) | > 100 µM (inactive) | > 100 µM (inactive) | > 100 µM (inactive) |
| Nc1nc(-c2ccccc2)cc(-c2cc(Cl)ccc2O)n1 | 45.7 µM (inactive) | > 100 µM (inactive) | 35.7 µM (inactive) | 29.1 µM (inactive) | 39.7 µM (inactive) | – | 48.3 µM (inactive) | – | > 100 µM (inactive) | > 100 µM (inactive) | > 100 µM (inactive) | 42.7 µM (inactive) | > 100 µM (inactive) | 64.3 µM (inactive) | > 100 µM (inactive) | 83.6 µM (inactive) | 35.6 µM (inactive) |
| CC1=C[C@H]2C[C@@]3(C)O[C@@H]([C@]4(C)CC[C@H]([C@@H](C)C(=O)O)OO4)CC3C(C)(C)[C@H]2CC1 (stereo partly drawn) | 1.91 µM (inactive) | 0.078 µM (active) | 1.81 µM (inactive) | 2.22 µM (inactive) | 2.16 µM (inactive) | 1.71 µM (inactive) | 0.612 µM (active) | – | 1.56 µM (inactive) | – | 1.44 µM (inactive) | 1.88 µM (inactive) | – | 1.25 µM (inactive) | 1.04 µM (active) | 2.01 µM (inactive) | 1.65 µM (inactive) |
| CC1=C(C(=O)Nc2ccc([N+](=O)[O-])cc2)C(c2ccco2)C(C(=O)Nc2ccc([N+](=O)[O-])cc2)=C(C)N1 | 13.4 µM (inactive) | 14.8 µM (inactive) | 11.2 µM (inactive) | 10 µM (inactive) | – | 7.52 µM (inactive) | 6.75 µM (inactive) | 14.5 µM (inactive) | 28.2 µM (inactive) | 5.18 µM (inactive) | 15.8 µM (inactive) | 18.1 µM (inactive) | 2.9 µM (inactive) | 4.61 µM (inactive) | 8.77 µM (inactive) | 28.1 µM (inactive) | 21.9 µM (inactive) |
